In US6861256B2, “Therapeutic and diagnostic tools for impaired glucose tolerance conditions” (The General Hospital Corporation, priority 1997, dated 2005):
Entries after “also recorded” stand apart in the source; their conditions may differ.

Tests used:
[1] = test system: C. elegans DAF-16 with the serine or threonine of the Akt/PKB consensus sites mutated to alanine
[2] = test system: T1, C. elegans DAF-16
T1 sequence: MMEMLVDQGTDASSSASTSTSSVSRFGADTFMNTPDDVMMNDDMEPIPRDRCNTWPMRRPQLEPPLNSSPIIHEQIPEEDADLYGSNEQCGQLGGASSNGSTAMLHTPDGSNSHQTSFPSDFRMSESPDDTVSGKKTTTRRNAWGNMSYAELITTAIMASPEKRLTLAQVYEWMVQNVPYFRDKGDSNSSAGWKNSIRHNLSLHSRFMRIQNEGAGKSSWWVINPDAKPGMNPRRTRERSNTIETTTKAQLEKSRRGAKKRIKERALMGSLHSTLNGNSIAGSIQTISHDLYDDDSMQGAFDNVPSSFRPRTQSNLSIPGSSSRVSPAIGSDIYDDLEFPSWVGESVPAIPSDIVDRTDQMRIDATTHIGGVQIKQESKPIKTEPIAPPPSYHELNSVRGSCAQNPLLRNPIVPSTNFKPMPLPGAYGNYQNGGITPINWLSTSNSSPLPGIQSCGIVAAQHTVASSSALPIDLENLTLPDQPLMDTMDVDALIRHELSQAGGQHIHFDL

[3] = test system: A. caninum L3; test: Drug assay in A. caninum (resumption of feeding of infective L3); type: in vivo, Ancylostoma caninum; details: for dauer recovery: A. caninum L3, agonist without serum and GSM
Description: Hookworm infective L3 animals were collected from 1-4 wk old coproculture by the Baermann technique, and decontaminated with 1% HCL in BU buffer (50 mM Na2PO4/22 mM KH2PO4/70 mM NaCl, pH 6.8) (Hawdon and Schad (1991) in Developmental Adaptations in Nematodes., ed. C. A. Toft, A. A. a. L. B. (Oxford University Press, Oxford), pp. 274-298; and Hawdon and Schad (1991) J. Helm. Soc. Wash. 58:140-142) for 30 minutes at 22° C. Approximately 250 L3 animals were incubated in individual wells of a 96-well tissue culture plate containing 0.1 ml RPMI1640 tissue culture medium, supplemented with 0.25 mM HEPES pH 7.2, 100 U/ml penicillin, 100 μg/ml streptomycin, 100 μg/ml gentamycin, and 2.5 μg/ml amphotericin B. The L3 animals were activated to resume development and feeding by including 10% (v/v) canine serum and 25 mM S-methyl-glutathione (GSM; Hawdon et al. (1995) Exper. Parasitol. 80:205-211). Non-activated L3 animals were incubated in RPMI alone (i.e., without the stimulus). Stock solutions of the drugs were made in RPMI, and included in the incubation at the indicated concentrations. […] The L3 animals were incubated at 37° C. 5% CO2 for 24 hours. The percentage of feeding L3 animals was determined by incubating the L3 animals with 2.5 mg/ml FITC-BSA for 2-3 hours, followed by counting the number of L3 animals that had ingested the labeled BSA by microscopic examination under epi-fluorescent illumination (Hawdon and Schad (1990) J. Parasit. 76:394-398). Each treatment was done in triplicate, and each experiment was repeated at least once.

[4] = test system: C. elegans dauers; test: Dauer recovery assay on drug plates; type: in vivo; details: for dauer recovery: C. elegans dauers induced by mutation or pheromone, drug plates; for dauer recovery of daf-2 dauers: daf-2(e1370) mutant dauers, all concentrations
Description: Minimal media plates were used for the drug assays: 3.0 g NaCl, 20 g agarose (Sigma-Type II #A6877) and 970 ml of water. The autoclaved solution was cooled to 50-55° C. before 25 ml of 1M KPO4 (pH 6.0), 1.0 ml 1M CaCl2, 1.0 ml of 1M MgSO4, and 1 ml of 5 mg/ml cholesterol were added. In some assays, Escherichia coli (DH5α) bacteria arrested with streptomycin was added to each plate.
In some experiments, 100-200 eggs or synchronized L1s were put onto the drug plates. For all experiments described herein, about 10,000 L1s were placed in 10 ml of S Medium containing 1-2 ml of a 0.4% (w/v) solution of Escherichia coli DH5α bacteria in M9 solution (Wood (1988) (Cold Spring Harbor Laboratory Press, Cold Spring Harbor, N.Y.)) arrested with streptomycin, in a 25 ml flask on a rotating heated water bath at 25° C. For wild-type N2 dauers, 600 μl of the 0.4% bacterial solution and pheromone was also added to flask as described in Gottlieb and Ruvkun (1994) Genetics 137:107120. The pheromone preparation is a solution prepared as follows. Animals were grown in a large flask for several generations, and then spun down. The supernatant was boiled down to a brownish powder and then ethanol extracted. After 72 hours of liquid growth, animals were centrifuged and the supernatant removed. Animals were then resuspended in a 15 ml tube with a pre-heated 25° C. solution of 1% SDS and tubes were placed on a rocker at 25° C. for 30 minutes. Animals were centrifuged and the SDS removed. Animals were washed with either M9 or S medium (Wood (1988) (Cold Spring Harbor Laboratory Press, Cold Spring Harbor, N.Y.)) 4-6 times. After a final spin, 100-200 dauers were placed onto the drug plates without food. 24 and 48 hours later, plates were scored for the number of dauers and non-dauer adults.
For each strain tested, a control plate without any drug, with and without food was also tested. […] The assay was performed at 25° C., which means that the daf-c mutants are still under full dauer inducing conditions.

[5] = test system: C. elegans unc-86 mutants; test: 5HT accumulation in the NSM neuron of unc-86 mutants; type: in vivo
[6] = wild-type pheromone-induced dauers

human AKT
in vitro phosphorylation [1]: in vitro phosphorylation of DAF-16 (or fragments of DAF-16) is abolished | in vitro phosphorylation [2]: human AKT will phosphorylate C. elegans DAF-16

COC(=O)C1=CCCN(C)C1 [arecoline]
dauer recovery [3]: promotes dauer recovery | maximal response lower than for the other agonists ([3]; A. caninum, FIG. 44B): 10 fold lower | dauer recovery [4]: promoted dauer recovery; also recorded: promoted recovery of dauers induced by mutation as well as pheromone | maximal response lower than for the other agonists ([4]; C. elegans, FIG. 44B): 10 fold lower | dauer recovery of daf-2 dauers [4]: fails to recover at all concentrations

CC[C@@H]1C(=O)OC[C@@H]1Cc1cncn1C [pilocarpine]
dauer recovery [3]: failed to recover | dauer recovery [4]: promoted dauer recovery; also recorded: promoted recovery of dauers induced by mutation as well as pheromone | concentration of maximum recovery ([4]; daf-7(e1372) dauers): 5 mM | concentration of maximum recovery [4, 6]: 1 mM

O=C1CCCN1CC#CCN1CCCC1 [oxotremorine]
dauer recovery [3]: promotes dauer recovery | concentration of maximum recovery ([3]; A. caninum L3 dauers): 5 mM | dauer recovery [4]: promoted dauer recovery; also recorded: promoted recovery of dauers induced by mutation as well as pheromone | Emax at 1000 µM ([4]; Caenorhabditis elegans, daf-7(e1372), daf-10(e1387) double mutant, 1 mM oxotremorine, read-out: maximum response, recovery): 13% | dauers that recover ([4]; daf-1(m40) dauers in oxotremorine): 30% | dauer recovery of daf-2 dauers [4]: fails to recover at all concentrations | dauers that recover ([4]; daf-4(m63) dauers in oxotremorine): 50% | concentration of maximum recovery ([4]; daf-7(e1372) dauers): 5 mM | dauers recovered ([4]; daf-7(e1372) dauers, 1 mM oxotremorine): 40% | concentration of maximum recovery [4, 6]: 1 mM

C[N+](C)(C)CCOC(N)=O [carbachol]
dauer recovery [4]: promoted recovery of dauers induced by mutation as well as pheromone

CNCCC(Oc1ccc(C(F)(F)F)cc1)c1ccccc1 (centres unmarked) [Prozac]
5HT accumulation in the NSM [5]: causes 5HT accumulation in the NSM to disappear

c1ccc([C@H]2CN3CCSC3=N2)cc1 [Levamisole, levamisole]
dauer recovery [4]: no effect on dauer recovery

C[C@@H]1O[C@H](C[N+](C)(C)C)C[C@H]1O [muscarine]
dauer recovery [4]: promoted dauer recovery

CN1[C@@H]2CC[C@H]1C[C@@H](OC(=O)C(CO)c1ccccc1)C2 (some centres unmarked) [atropine]
recovery with arecoline plus atropine ([3]; A. caninum L3, 0.5 mM arecoline and 1.0 mM atropine (increasing atropine in FIG. 44C)): completely inhibited; also recorded: failed to recover | recovery / resumption of feeding ([3]; A. caninum L3, 10% serum and 25 mM GSM, atropine 0.5 mM): completely inhibited recovery | inhibition at 500 µM ([3]; Ancylostoma caninum, read-out: inhibition of recovery): 99.5% | inhibition of muscarinic agonist-induced dauer recovery ([4]; C. elegans, 1 mM oxotremorine, increasing atropine): completely inhibited; also recorded: all of the drug-induced dauer recovery was inhibited | recovery induced by oxotremorine in combination with atropine ([4]; daf-7(e1372) dauers, 1 mM oxotremorine + 1 mM atropine): 5% | oxotremorine response in presence of atropine ([4]; daf-7(e1372) dauers, 1 mM oxotremorine + 5 mM atropine): completely abolished | dauer larvae recovered ([4]; pheromone-induced dauers, bacterial food plus atropine, 25° C.): 21%
